Results reported in publication PMC9007951, “Systematically evaluating DOTATATE and FDG as PET immuno-imaging tracers of cardiovascular inflammation” (Scientific Reports, 2022).
Read-outs that look alike come from different tables or passages of the source.

Experiment: Timed organ biodistribution of [^64Cu]Cu-DOTATATE by ex vivo gamma counting
Type: in vivo, mice
Conditions: mouse, intravenous, 1.85 MBq, total radioactivity, median (IQR); for tissue uptake at 1 min: 1 min after injection; for tissue uptake at 5 min: 5 min after injection; for tissue uptake at 0.25 h: 15 min after injection; for tissue uptake at 0.5 h: 30 min after injection; for tissue uptake at 2 h: 120 min after injection; for tissue uptake at 1 h: 60 min after injection
Protocol: Wild-type and atherosclerotic animals were injected with approximately 1.85 MBq of [^64Cu]Cu-DOTATATE and euthanized at either 1, 5, 15, 30, 60 or 120 min after injection (Supplementary Fig. S1A) to evaluate the tracer’s biodistribution. After euthanasia, an insulin syringe was used to collect blood samples from the right ventricle. Blood samples were used for the establishment of pharmacokinetics profile. Mice were then perfused with 20 mL of phosphate-buffered saline (PBS) and tissues of interest (heart, aorta, bone marrow, spleen, liver, stomach, bladder, kidneys, intestines, lungs, adrenal gland, muscles and pancreas) were harvested. Tissues were blotted for gamma counting on a Wizard2 2480 automatic gamma counter (Perkin Elmer, Waltham, MA). Values were corrected for decay and normalized to tissue weight to express radioactivity concentration as percentage injected dose per gram (%ID/g). […] To investigate the tracer’s distribution within different blood compartments, after gamma counting, 100 μL of blood were spun down at 2000 g for 15 min at 4 °C. Plasma (supernatant) and cells (pellet) were gamma counted and expressed as percentage of total activity. The remainder of the blood was separated using Lymphoprep density gradient medium (Nycomed Pharma, Zurich, Switzerland) following manufacturer’s instructions. Percentage of activity in mononuclear and polynuclear cells was calculated.

[1] = abdominal aorta, female Apoe^-/- mice 12 weeks on Western Diet, N=3-8, read-out: Tissue radioactivity, abdominal aorta
[2] = abdominal aorta, female C57BL/6 mice, N=3-7, read-out: Tissue radioactivity, abdominal aorta
[3] = adrenal gland, female Apoe^-/- mice 12 weeks on Western Diet, N=3-8, read-out: Tissue radioactivity, adrenal gland
[4] = adrenal gland, female C57BL/6 mice, N=3-7, read-out: Tissue radioactivity, adrenal gland
[5] = aortic arch, female Apoe^-/- mice 12 weeks on Western Diet, N=3-8, read-out: Tissue radioactivity, aortic arch
[6] = aortic arch, female C57BL/6 mice, N=3-7, read-out: Tissue radioactivity, aortic arch
[7] = bladder, female Apoe^-/- mice 12 weeks on Western Diet, N=3-8, read-out: Tissue radioactivity, bladder
[8] = bladder, female C57BL/6 mice, N=3-7, read-out: Tissue radioactivity, bladder
[9] = bone marrow, female Apoe^-/- mice 12 weeks on Western Diet, N=3-8, read-out: Tissue radioactivity, bone marrow
[10] = bone marrow, female C57BL/6 mice, N=3-7, read-out: Tissue radioactivity, bone marrow
[11] = fat, female Apoe^-/- mice 12 weeks on Western Diet, N=3-8, read-out: Tissue radioactivity, fat
[12] = fat, female C57BL/6 mice, N=3-7, read-out: Tissue radioactivity, fat
[13] = heart, female Apoe^-/- mice 12 weeks on Western Diet, N=3-8, read-out: Tissue radioactivity, heart
[14] = heart, female C57BL/6 mice, N=3-7, read-out: Tissue radioactivity, heart
[15] = kidneys, female Apoe^-/- mice 12 weeks on Western Diet, N=3-8, read-out: Tissue radioactivity, kidneys
[16] = kidneys, female C57BL/6 mice, N=3-7, read-out: Tissue radioactivity, kidneys
[17] = large intestine, female Apoe^-/- mice 12 weeks on Western Diet, N=3-8, read-out: Tissue radioactivity, large intestine
[18] = large intestine, female C57BL/6 mice, N=3-7, read-out: Tissue radioactivity, large intestine
[19] = liver, female Apoe^-/- mice 12 weeks on Western Diet, N=3-8, read-out: Tissue radioactivity, liver

C[C@@H](O)[C@H](NC(=O)[C@@H]1CSSC[C@H](NC(=O)[C@@H](Cc2ccccc2)NC(=O)CN2CCN(CC(=O)O)CCN(CC(=O)O)CCN(CC(=O)O)CC2)C(=O)N[C@@H](Cc2ccc(O)cc2)C(=O)N[C@H](Cc2c[nH]c3ccccc23)C(=O)N[C@@H](CCCCN)C(=O)N[C@@H]([C@@H](C)O)C(=O)N1)C(=O)O [[^64Cu]Cu-DOTATATE, metal not drawn]
tissue uptake at 1 min [1]: 3.1 %ID/g | tissue uptake at 5 min [1]: 3.2 %ID/g | tissue uptake at 0.25 h [1]: 2.1 %ID/g | tissue uptake at 0.5 h [1]: 2.5 %ID/g | tissue uptake at 2 h [1]: 2.1 %ID/g | tissue uptake at 1 min [2]: 5.1 %ID/g | tissue uptake at 5 min [2]: 3.8 %ID/g | tissue uptake at 0.25 h [2]: 2.4 %ID/g | tissue uptake at 0.5 h [2]: 1.7 %ID/g | tissue uptake at 1 h [2]: 1.3 %ID/g | tissue uptake at 2 h [2]: 0.7 %ID/g | tissue uptake at 1 min [3]: 1.4 %ID/g | tissue uptake at 5 min [3]: 1.2 %ID/g | tissue uptake at 0.25 h [3]: 1.4 %ID/g | tissue uptake at 0.5 h [3]: 1.5 %ID/g | tissue uptake at 1 h [3]: 1.4 %ID/g | tissue uptake at 2 h [3]: 1.1 %ID/g | tissue uptake at 0.25 h [4]: 1.7 %ID/g | tissue uptake at 0.5 h [4]: 1.6 %ID/g | tissue uptake at 1 h [4]: 1.6 %ID/g | tissue uptake at 2 h [4]: 0.6 %ID/g | tissue uptake at 1 min [5]: 2.9 %ID/g | tissue uptake at 0.25 h [5]: 1.7 %ID/g | tissue uptake at 0.5 h [5]: 1.7 %ID/g | tissue uptake at 1 min [6]: 2.8 %ID/g | tissue uptake at 0.25 h [6]: 1.3 %ID/g | tissue uptake at 0.5 h [6]: 1.1 %ID/g | tissue uptake at 1 h [6]: 1.1 %ID/g | tissue uptake at 2 h [6]: 1.2 %ID/g | tissue uptake at 1 min [7]: 1.7 %ID/g | tissue uptake at 5 min [7]: 98.7 %ID/g | tissue uptake at 0.25 h [7]: 38.9 %ID/g | tissue uptake at 0.5 h [7]: 2.9 %ID/g | tissue uptake at 1 h [7]: 4.7 %ID/g | tissue uptake at 2 h [7]: 2.4 %ID/g | tissue uptake at 1 min [8]: 4.6 %ID/g | tissue uptake at 5 min [8]: 36.4 %ID/g | tissue uptake at 0.25 h [8]: 7.9 %ID/g | tissue uptake at 0.5 h [8]: 6.8 %ID/g | tissue uptake at 2 h [8]: 10.4 %ID/g | tissue uptake at 1 min [9]: 3.1 %ID/g | tissue uptake at 5 min [9]: 2.3 %ID/g | tissue uptake at 0.25 h [9]: 2.6 %ID/g | tissue uptake at 2 h [9]: 2.7 %ID/g | tissue uptake at 5 min [10]: 4.3 %ID/g | tissue uptake at 0.25 h [10]: 3.5 %ID/g | tissue uptake at 1 h [10]: 2.1 %ID/g | tissue uptake at 2 h [10]: 2.5 %ID/g | tissue uptake at 1 min [11]: 0.3 %ID/g | tissue uptake at 5 min [11]: 0.4 %ID/g | tissue uptake at 0.25 h [11]: 0.4 %ID/g | tissue uptake at 0.5 h [11]: 0.3 %ID/g | tissue uptake at 1 h [11]: 0.2 %ID/g | tissue uptake at 2 h [11]: 0.2 %ID/g | tissue uptake at 1 min [12]: 1.1 %ID/g | tissue uptake at 5 min [12]: 1.3 %ID/g | tissue uptake at 0.25 h [12]: 0.8 %ID/g | tissue uptake at 0.5 h [12]: 0.5 %ID/g | tissue uptake at 1 h [12]: 0.3 %ID/g | tissue uptake at 2 h [12]: 0.2 %ID/g | tissue uptake at 1 min [13]: 2.3 %ID/g | tissue uptake at 5 min [13]: 1.4 %ID/g | tissue uptake at 0.25 h [13]: 1.1 %ID/g | tissue uptake at 1 h [13]: 1.3 %ID/g | tissue uptake at 2 h [13]: 1.4 %ID/g | tissue uptake at 1 min [14]: 3.8 %ID/g | tissue uptake at 5 min [14]: 2.1 %ID/g | tissue uptake at 0.25 h [14]: 1.1 %ID/g | tissue uptake at 1 h [14]: 0.8 %ID/g | tissue uptake at 2 h [14]: 0.7 %ID/g | tissue uptake at 1 min [15]: 15.6 %ID/g | tissue uptake at 5 min [15]: 22.9 %ID/g | tissue uptake at 0.25 h [15]: 13.2 %ID/g | tissue uptake at 0.5 h [15]: 8.8 %ID/g | tissue uptake at 1 min [16]: 26.8 %ID/g | tissue uptake at 5 min [16]: 20.5 %ID/g | tissue uptake at 0.25 h [16]: 11.5 %ID/g | tissue uptake at 0.5 h [16]: 8.2 %ID/g | tissue uptake at 1 h [16]: 6.1 %ID/g | tissue uptake at 1 min [17]: 1.3 %ID/g | tissue uptake at 5 min [17]: 1.3 %ID/g | tissue uptake at 0.5 h [17]: 2.8 %ID/g | tissue uptake at 2 h [17]: 3.8 %ID/g | tissue uptake at 1 min [18]: 2.7 %ID/g | tissue uptake at 5 min [18]: 1.6 %ID/g | tissue uptake at 0.5 h [18]: 1.7 %ID/g | tissue uptake at 1 h [18]: 3 %ID/g | tissue uptake at 2 h [18]: 3.1 %ID/g | tissue uptake at 1 min [19]: 4.4 %ID/g | tissue uptake at 5 min [19]: 4.9 %ID/g | tissue uptake at 0.25 h [19]: 8.6 %ID/g
